PubChem BioAssay AID2060893 (Molecular Pharmacology Branch, DTP, NCI, 2025)

System: K86415-001-R-J1-PDC complex spheroids, viability
Test: Anticancer human tumor K86415-001-R-J1-PDC patient-derived lung adenocarcinoma cell line growth inhibition [RAS]
Details: for IC50: curve of first compound; for viability, T/C: stronger effect = lower value
Summary of the method: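 Tumour cells grown as complex spheroids with HUVEC endothelial cells and mesenchymal stem cells, treated with RAS pathway inhibitor combinations. Each agent spans half-log steps from near clinical Cmax, or 10 microM where Cmax is unknown.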

[1] = second compound 0.000949 µM, first compound 0.0316 µM
[2] = second compound 0.000949 µM, first compound 0.1 µM
[3] = second compound 0.000949 µM, first compound 0.316 µM
[4] = second compound 0.000949 µM, first compound 1 µM
[5] = second compound 0.000949 µM, first compound 3.16 µM
[6] = second compound 0.000949 µM, first compound 10 µM
[7] = second compound 0.003 µM, first compound 0.0316 µM
[8] = second compound 0.003 µM, first compound 0.1 µM
[9] = second compound 0.003 µM, first compound 0.316 µM
[10] = second compound 0.003 µM, first compound 1 µM
[11] = second compound 0.003 µM, first compound 3.16 µM
[12] = second compound 0.003 µM, first compound 10 µM
[13] = second compound 0.00949 µM, first compound 0.0316 µM
[14] = second compound 0.00949 µM, first compound 0.1 µM
[15] = second compound 0.00949 µM, first compound 0.316 µM
[16] = second compound 0.00949 µM, first compound 1 µM
[17] = second compound 0.00949 µM, first compound 3.16 µM
[18] = second compound 0.00949 µM, first compound 10 µM
[19] = second compound 0.03 µM, first compound 0.0316 µM
[20] = second compound 0.03 µM, first compound 0.1 µM
[21] = second compound 0.03 µM, first compound 0.316 µM
[22] = second compound 0.03 µM, first compound 1 µM
[23] = second compound 0.03 µM, first compound 3.16 µM
[24] = second compound 0.03 µM, first compound 10 µM
[25] = second compound 0.0949 µM, first compound 0.0316 µM
[26] = second compound 0.0949 µM, first compound 0.1 µM
[27] = second compound 0.0949 µM, first compound 0.316 µM
[28] = second compound 0.0949 µM, first compound 1 µM
[29] = second compound 0.0949 µM, first compound 3.16 µM
[30] = second compound 0.0949 µM, first compound 10 µM
[31] = second compound 0.3 µM, first compound 0.0316 µM
[32] = second compound 0.3 µM, first compound 0.1 µM
[33] = second compound 0.3 µM, first compound 0.316 µM
[34] = second compound 0.3 µM, first compound 1 µM
[35] = second compound 0.3 µM, first compound 3.16 µM
[36] = second compound 0.3 µM, first compound 10 µM
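Also: spheroids exposed to agents for seven days before readout.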

C[C@@H](NC(=O)c1ncnc(N)c1Cl)c1ncc(C(=O)Nc2cc(C(F)(F)F)c(Cl)cn2)s1 + CCn1c(-c2cccnc2C(C)OC)c2c3cc(ccc31)N1CCOC(CC(NC(=O)C(C(C)C)N(C)C(=O)C3(F)CCN(C(=O)C#CC(C)(C)N(C)C)CC3)C(=O)N3CCCC(N3)C(=O)OCC(C)(C)C2)C1
IC50 (second compound 0.000949 µM): < 31.6 nM
IC50 (second compound 0.003 µM): < 31.6 nM
IC50 (second compound 0.00949 µM): < 31.6 nM
IC50 (second compound 0.03 µM): < 31.6 nM
IC50 (second compound 0.0949 µM): < 31.6 nM
IC50 (second compound 0.3 µM): < 31.6 nM
viability, T/C [1]: 44.6%
viability, T/C [2]: 55.7%
viability, T/C [3]: 35.6%
viability, T/C [4]: 56.4%
viability, T/C [5]: 45.2%
viability, T/C [6]: 21.5%
viability, T/C [7]: 18.7%
viability, T/C [8]: 15.2%
viability, T/C [9]: 16.7%
viability, T/C [10]: 16.3%
viability, T/C [11]: 16.3%
viability, T/C [12]: 12.6%
viability, T/C [13]: 14.2%
viability, T/C [14]: 14%
viability, T/C [15]: 13.8%
viability, T/C [16]: 14.1%
viability, T/C [17]: 12.6%
viability, T/C [18]: 13.3%
viability, T/C [19]: 14.6%
viability, T/C [20]: 14.2%
viability, T/C [21]: 17%
viability, T/C [22]: 16.4%
viability, T/C [23]: 13.6%
viability, T/C [24]: 12.3%
viability, T/C [25]: 12.1%
viability, T/C [26]: 14.3%
viability, T/C [27]: 12.7%
viability, T/C [28]: 14.5%
viability, T/C [29]: 13.6%
viability, T/C [30]: 13.8%
viability, T/C [31]: 12%
viability, T/C [32]: 13.5%
viability, T/C [33]: 14.9%
viability, T/C [34]: 15.3%
viability, T/C [35]: 13.8%
viability, T/C [36]: 13.1%

Cc1nc(N2CCC3(CC2)COC(C)C3N)c(CO)nc1Sc1ccnc(N)c1Cl (centres undefined) + CCn1c(-c2cccnc2C(C)OC)c2c3cc(ccc31)N1CCOC(CC(NC(=O)C(C(C)C)N(C)C(=O)C3(F)CCN(C(=O)C#CC(C)(C)N(C)C)CC3)C(=O)N3CCCC(N3)C(=O)OCC(C)(C)C2)C1
IC50 (second compound 0.000949 µM): < 31.6 nM
IC50 (second compound 0.003 µM): < 31.6 nM
IC50 (second compound 0.00949 µM): < 31.6 nM
IC50 (second compound 0.03 µM): < 31.6 nM
IC50 (second compound 0.0949 µM): < 31.6 nM
IC50 (second compound 0.3 µM): < 31.6 nM
viability, T/C [1]: 29.3%
viability, T/C [2]: 16.5%
viability, T/C [3]: 7.93%
viability, T/C [4]: 9.19%
viability, T/C [5]: 6.66%
viability, T/C [6]: 4.12%
viability, T/C [7]: 8.24%
viability, T/C [8]: 6.74%
viability, T/C [9]: 5.5%
viability, T/C [10]: 7.84%
viability, T/C [11]: 3.89%
viability, T/C [12]: 3.06%
viability, T/C [13]: 7.59%
viability, T/C [14]: 5.87%
viability, T/C [15]: 5.22%
viability, T/C [16]: 4.38%
viability, T/C [17]: 3.17%
viability, T/C [18]: 3.06%
viability, T/C [19]: 10.5%
viability, T/C [20]: 6.71%
viability, T/C [21]: 5.16%
viability, T/C [22]: 4.22%
viability, T/C [23]: 3.35%
viability, T/C [24]: 3.62%
viability, T/C [25]: 9.27%
viability, T/C [26]: 6.46%
viability, T/C [27]: 4.18%
viability, T/C [28]: 4.43%
viability, T/C [29]: 3.06%
viability, T/C [30]: 2.77%
viability, T/C [31]: 8.31%
viability, T/C [32]: 6.71%
viability, T/C [33]: 5.12%
viability, T/C [34]: 4.01%
viability, T/C [35]: 3.5%
viability, T/C [36]: 2.86%
